From ChEMBL document CHEMBL2021829, “Design, Synthesis and Biological Evaluation of a Series of Novel Axl Kinase Inhibitors” (ACS Med Chem Lett, 2011)

Target: T1, Aurora kinase A (Homo sapiens, UniProt O14965)
T1 sequence (O14965 whole entry): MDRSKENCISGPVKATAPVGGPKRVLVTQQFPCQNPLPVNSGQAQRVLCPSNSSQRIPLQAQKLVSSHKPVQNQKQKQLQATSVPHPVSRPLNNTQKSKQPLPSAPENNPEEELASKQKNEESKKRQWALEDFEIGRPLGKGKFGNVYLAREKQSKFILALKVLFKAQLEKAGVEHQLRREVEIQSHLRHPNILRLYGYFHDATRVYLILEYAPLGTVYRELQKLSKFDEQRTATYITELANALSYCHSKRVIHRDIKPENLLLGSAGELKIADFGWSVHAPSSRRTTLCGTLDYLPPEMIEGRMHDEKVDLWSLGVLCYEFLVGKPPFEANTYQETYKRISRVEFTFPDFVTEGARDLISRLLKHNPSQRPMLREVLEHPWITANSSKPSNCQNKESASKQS
Experiment: Inhibition of Aurora A
Settings: not given

IC50 [nM] | SMILES
3 | CN1CCN(Cc2ccc(Nc3ncc(Cl)c(Nc4ccccc4S(=O)(=O)N(C)C)n3)cc2)CC1 [DUBERMATINIB]

Target: Aurora kinase B (Homo sapiens, UniProt Q96GD4)
Sequence (Q96GD4 whole entry): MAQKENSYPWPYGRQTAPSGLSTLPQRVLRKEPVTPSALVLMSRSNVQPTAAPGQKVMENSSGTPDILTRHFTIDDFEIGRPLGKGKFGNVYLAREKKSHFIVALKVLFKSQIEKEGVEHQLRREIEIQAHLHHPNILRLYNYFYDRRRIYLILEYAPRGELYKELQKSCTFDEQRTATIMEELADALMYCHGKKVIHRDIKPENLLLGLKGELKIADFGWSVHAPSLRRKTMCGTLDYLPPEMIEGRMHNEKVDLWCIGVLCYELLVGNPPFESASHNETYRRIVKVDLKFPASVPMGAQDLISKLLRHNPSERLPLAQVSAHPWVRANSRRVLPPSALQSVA
Experiment: Inhibition of Aurora B
Settings: not given

IC50 [nM] | SMILES
12.4 | CN1CCN(Cc2ccc(Nc3ncc(Cl)c(Nc4ccccc4S(=O)(=O)N(C)C)n3)cc2)CC1 [DUBERMATINIB]

Target: T2, Tyrosine-protein kinase Mer (Homo sapiens, UniProt Q12866)
T2 sequence (Q12866 whole entry): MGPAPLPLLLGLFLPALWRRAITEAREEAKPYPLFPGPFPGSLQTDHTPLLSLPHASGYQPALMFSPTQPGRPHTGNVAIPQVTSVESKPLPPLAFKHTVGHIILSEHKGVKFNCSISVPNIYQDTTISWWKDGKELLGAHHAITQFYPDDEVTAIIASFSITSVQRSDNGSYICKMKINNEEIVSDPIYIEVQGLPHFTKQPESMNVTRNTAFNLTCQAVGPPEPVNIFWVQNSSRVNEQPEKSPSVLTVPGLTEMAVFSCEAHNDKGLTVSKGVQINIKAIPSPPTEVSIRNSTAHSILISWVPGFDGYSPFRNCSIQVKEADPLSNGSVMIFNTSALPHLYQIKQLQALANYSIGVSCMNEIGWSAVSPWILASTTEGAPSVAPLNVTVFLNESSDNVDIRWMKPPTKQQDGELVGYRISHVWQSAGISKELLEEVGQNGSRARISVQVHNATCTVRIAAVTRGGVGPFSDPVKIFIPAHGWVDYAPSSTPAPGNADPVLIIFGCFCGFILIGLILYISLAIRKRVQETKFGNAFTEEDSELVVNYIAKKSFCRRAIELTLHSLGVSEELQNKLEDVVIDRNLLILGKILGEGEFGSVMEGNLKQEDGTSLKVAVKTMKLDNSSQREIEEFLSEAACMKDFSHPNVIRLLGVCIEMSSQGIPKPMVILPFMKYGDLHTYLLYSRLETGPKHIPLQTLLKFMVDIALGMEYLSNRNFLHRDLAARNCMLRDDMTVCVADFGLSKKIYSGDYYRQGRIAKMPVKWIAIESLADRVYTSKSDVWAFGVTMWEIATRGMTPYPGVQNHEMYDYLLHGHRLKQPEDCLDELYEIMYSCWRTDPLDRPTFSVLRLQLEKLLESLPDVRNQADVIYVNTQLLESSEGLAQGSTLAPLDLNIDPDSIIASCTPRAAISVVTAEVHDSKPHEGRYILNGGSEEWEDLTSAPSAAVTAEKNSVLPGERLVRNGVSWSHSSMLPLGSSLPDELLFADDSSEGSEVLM
Experiment: Inhibition of Mer kinase
Settings: not given

IC50 [nM] | SMILES
11300 | CC(C)n1cnc2c(Nc3cccc(Cl)c3)nc(NCCO)nc21

Tested on: PSN1
Experiment: Cytotoxicity against human PSN1 cells after 96 hrs by ATP-lite luminescence assay
Assay type: functional, cell-based
Settings: PSN1, 96 h

SMILES | IC50 [nM]
CN1CCN(Cc2ccc(Nc3ncc(Cl)c(Nc4ccccc4C(=O)N(C)C)n3)cc2)CC1 | 70
CN1CCN(Cc2ccc(Nc3ncc(Cl)c(Nc4ccccc4C(=O)N4CCCC4)n3)cc2)CC1 | 21
CN1CCN(Cc2ccc(Nc3ncc(Cl)c(Nc4ccccc4C(=O)NC4CC4)n3)cc2)CC1 | 64
CN1CCN(Cc2ccc(Nc3ncc(Cl)c(Nc4ccccc4S(=O)(=O)N4CCCC4)n3)cc2)CC1 | 2
CN1CCN(Cc2ccc(Nc3ncc(Cl)c(Nc4ccc(F)cc4S(=O)(=O)N4CCCC4)n3)cc2)CC1 | 9
CN1CCN(Cc2ccc(Nc3ncc(Cl)c(-c4ccc(F)cc4S(=O)(=O)N4CCCC4)n3)cc2)CC1 | 192

Target: T3, Tyrosine-protein kinase receptor UFO (Homo sapiens, UniProt P30530)
T3 sequence (P30530 whole entry): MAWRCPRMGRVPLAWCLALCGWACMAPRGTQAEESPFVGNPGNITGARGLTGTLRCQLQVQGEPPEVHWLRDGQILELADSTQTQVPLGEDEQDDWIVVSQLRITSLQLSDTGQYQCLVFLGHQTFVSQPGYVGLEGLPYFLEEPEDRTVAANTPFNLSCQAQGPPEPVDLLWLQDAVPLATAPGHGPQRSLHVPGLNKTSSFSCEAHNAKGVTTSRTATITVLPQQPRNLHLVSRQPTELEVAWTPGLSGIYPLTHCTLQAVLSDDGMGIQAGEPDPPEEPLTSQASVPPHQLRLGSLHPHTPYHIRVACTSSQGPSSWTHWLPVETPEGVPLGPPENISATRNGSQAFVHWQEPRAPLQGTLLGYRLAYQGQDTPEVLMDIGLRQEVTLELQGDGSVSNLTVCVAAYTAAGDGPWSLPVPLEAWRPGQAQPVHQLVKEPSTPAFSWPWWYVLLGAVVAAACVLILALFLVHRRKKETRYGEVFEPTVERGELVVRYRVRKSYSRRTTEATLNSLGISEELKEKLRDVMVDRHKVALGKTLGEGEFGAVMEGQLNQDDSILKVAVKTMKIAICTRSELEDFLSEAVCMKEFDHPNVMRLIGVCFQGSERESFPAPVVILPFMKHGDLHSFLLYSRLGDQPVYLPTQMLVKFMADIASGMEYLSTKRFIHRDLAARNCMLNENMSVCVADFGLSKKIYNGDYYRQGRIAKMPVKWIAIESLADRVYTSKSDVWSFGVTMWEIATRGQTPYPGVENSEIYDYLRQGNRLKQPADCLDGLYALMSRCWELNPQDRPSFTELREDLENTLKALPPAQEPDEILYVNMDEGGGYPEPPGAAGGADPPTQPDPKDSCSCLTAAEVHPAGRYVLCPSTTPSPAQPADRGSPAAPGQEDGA
Settings: not given

IC50 [nM] | SMILES
2800 | Cc1cnc(Nc2ccc(N3CCN(C)CC3)c(F)c2)nc1-c1ccc(F)c(Cl)c1
6100 | Cc1cnc(Nc2ccc(N3CCN(C)CC3)c(F)c2)nc1-c1ccc(F)cc1
1630 | Cc1cnc(Nc2ccc(OCCN3CCCCC3)cc2)nc1-c1ccc(F)c(Cl)c1
3400 | CN1CCN(Cc2ccc(Nc3ncc(C4CC4)c(-c4ccc(F)c(Cl)c4)n3)cc2)CC1
> 10000 | CN1CCN(Cc2ccc(Nc3ncc(C(F)(F)F)c(Nc4ccccc4C(=O)N(C)C)n3)cc2)CC1
19 | CN1CCN(Cc2ccc(Nc3ncc(Cl)c(Nc4ccccc4S(=O)(=O)N4CCCC4)n3)cc2)CC1
82 | CN1CCN(Cc2ccc(Nc3ncc(Cl)c(-c4ccc(F)cc4S(=O)(=O)N(C)C)n3)cc2)CC1
91 | CN1CCN(Cc2ccc(Nc3ncc(Cl)c(-c4ccc(F)cc4S(=O)(=O)N4CCCC4)n3)cc2)CC1
1730 | CN1CCN(c2ccc(Nc3ncc(Cl)c(Nc4ccccc4S(=O)(=O)N(C)C)n3)cc2)CC1
